The values below are quoted from earlier work in PubChem BioAssay AID1259409 (Chemical Carcinogenesis Research Information System (CCRIS), 2018).

The subject of this data set is rodent chemically induced tumor inhibition, incidence and multiplicity. Briefly: CCRIS tumor inhibitor studies. The following applies: for tumour outcome (control, treated, inhibition, significance): Dose [Inhibitor]: 0.

In the case of `C=CCSCC=C`, the “tumour outcome (control, treated, inhibition, significance)” value (Carcinogen: DIETHYLNITROSAMINE, 55-18-5, N-METHYL-N-NITROSOUREA, 684-93-5, N,N-DIBUTYLNITROSAMINE, 924-16-3, Carcinogen: DIETHYLNITROSAMINE, 55-18-5, N-METHYL-N-NITROSOUREA, 684-93-5, N,N-DIBUTYLNITROSAMINE, 924-16-3, 0.5% IN DIET BEGINNING POST CARCINOGEN TREATMENT AND CONTINUING TO WK 40 (STUDY DURATION: 40 WK), Route [Inhibitor]: ORAL, Species: RAT, Strain/Sex: F344/MALE, Target Tissue: Type of Lesion: LUNG: CARCINOMA, Dose [Carcinogen]: 100 MG/KG DIETHYLNITROSAMINE ONCE FOLLOWED BY 20 MG/KG N-METHYL-N-NITROSOUREA ON D 2, 5, 8 AND 11 THEN 0.05% N-N-DIBUTYL, Promoter: NONE USED) is given as 3/16 (19%), 0/18 (0%), 100%, not calculated; the “tumour outcome (control, treated, inhibition, significance)” value (Carcinogen: DIETHYLNITROSAMINE, 55-18-5, N-METHYL-N-NITROSOUREA, 684-93-5, N,N-DIBUTYLNITROSAMINE, 924-16-3, Carcinogen: DIETHYLNITROSAMINE, 55-18-5, N-METHYL-N-NITROSOUREA, 684-93-5, N,N-DIBUTYLNITROSAMINE, 924-16-3, 0.5% IN DIET BEGINNING POST CARCINOGEN TREATMENT AND CONTINUING TO WK 40 (STUDY DURATION: 40 WK), Route [Inhibitor]: ORAL, Species: RAT, Strain/Sex: F344/MALE, Target Tissue: Type of Lesion: THYROID: ADENOMA, Dose [Carcinogen]: 100 MG/KG DIETHYLNITROSAMINE ONCE FOLLOWED BY 20 MG/KG N-METHYL-N-NITROSOUREA ON D 2, 5, 8 AND 11 THEN 0.05% N-N-DIBUTYL, Promoter: NONE USED) is 8/16 (50%), 2/18 (11%), 78%, p<0.02; the “tumour outcome (control, treated, inhibition, significance)” value (Carcinogen: DIETHYLNITROSAMINE, 55-18-5, N-METHYL-N-NITROSOUREA, 684-93-5, N,N-DIBUTYLNITROSAMINE, 924-16-3, Carcinogen: DIETHYLNITROSAMINE, 55-18-5, N-METHYL-N-NITROSOUREA, 684-93-5, N,N-DIBUTYLNITROSAMINE, 924-16-3, 0.5% IN DIET BEGINNING POST CARCINOGEN TREATMENT AND CONTINUING TO WK 40 (STUDY DURATION: 40 WK), Route [Inhibitor]: ORAL, Species: RAT, Strain/Sex: F344/MALE, Target Tissue: Type of Lesion: THYROID: CARCINOMA, Dose [Carcinogen]: 100 MG/KG DIETHYLNITROSAMINE ONCE FOLLOWED BY 20 MG/KG N-METHYL-N-NITROSOUREA ON D 2, 5, 8 AND 11 THEN 0.05% N-N-DIBUTYL, Promoter: NONE USED) was 2/16 (13%), 0/18 (0%), 100%, not calculated; the “tumour outcome (control, treated, inhibition, significance)” value (Carcinogen: DIETHYLNITROSAMINE, 55-18-5, N-METHYL-N-NITROSOUREA, 684-93-5, N,N-DIBUTYLNITROSAMINE, 924-16-3, Carcinogen: DIETHYLNITROSAMINE, 55-18-5, N-METHYL-N-NITROSOUREA, 684-93-5, N,N-DIBUTYLNITROSAMINE, 924-16-3, 0.5% IN DIET BEGINNING POST CARCINOGEN TREATMENT AND CONTINUING TO WK 40 (STUDY DURATION: 40 WK), Route [Inhibitor]: ORAL, Species: RAT, Strain/Sex: F344/MALE, Target Tissue: Type of Lesion: URINARY BLADDER: CARCINOMA, Dose [Carcinogen]: 100 MG/KG DIETHYLNITROSAMINE ONCE FOLLOWED BY 20 MG/KG N-METHYL-N-NITROSOUREA ON D 2, 5, 8 AND 11 THEN 0.05% N-N-DIBUTYL, Promoter: NONE USED) is reported as 1/16 (6%), 0/18 (0%), 100%, not calculated; the “tumour outcome (control, treated, inhibition, significance)” value (Carcinogen: DIETHYLNITROSAMINE, 55-18-5, N-METHYL-N-NITROSOUREA, 684-93-5 N,N-DIBUTYLNITROSAMINE, 924-16-3, Carcinogen: DIETHYLNITROSAMINE, 55-18-5, N-METHYL-N-NITROSOUREA, 684-93-5 N,N-DIBUTYLNITROSAMINE, 924-16-3, 0.5% IN DIET BEGINNING POST CARCINOGEN TREATMENT AND CONTINUING TO WK 40 (STUDY DURATION: 40 WK), Route [Inhibitor]: ORAL, Species: RAT, Strain/Sex: F344/MALE, Target Tissue: Type of Lesion: URINARY BLADDER: PAPILLOMA, Dose [Carcinogen]: 100 MG/KG DIETHYLNITROSAMINE ONCE FOLLOWED BY 20 MG/KG N-METHYL-N-NITROSOUREA ON D 2, 5, 8 AND 11 THEN 0.05% N-N-DIBUTYL, Promoter: NONE USED) is given as 4/16 (25%), 2/18 (11%), 56%, not calculated; the “tumour outcome (control, treated, inhibition, significance)” value (Carcinogen: DIETHYLNITROSAMINE, 55-18-5, N-METHYL-NITROSOUREA, 684-93-5, N,N'-DIMETHYLHYDRAZINE, 540-73-8, N-BUTYL-N-(4-HYDROX, Carcinogen: DIETHYLNITROSAMINE, 55-18-5, N-METHYL-NITROSOUREA, 684-93-5, N,N'-DIMETHYLHYDRAZINE, 540-73-8, N-BUTYL-N-(4-HYDROX, 200 MG/KG BW IN CORN OIL 3/WK FOR 6 WK BEGINNING POST CARCINOGEN TREATMENT (STUDY DURATION: 28 WK), Route [Inhibitor]: GAVAGE, Species: RAT, Strain/Sex: F344/MALE, Target Tissue: Type of Lesion: KIDNEY: NEPHROBLASTOMA, Dose [Carcinogen]: 100 MG/KG BW DEN ONCE, 20 MG/KG BW MNU ONCE ON D 2, 5, 8 AND 11, 40 MG/KG BW DMH ON D 14, 17, 20 AND 23, 0.05% BHBN I, Dose [Carcinogen]: 100 MG/KG BW DEN ONCE, 20 MG/KG BW MNU ONCE ON D 2, 5, 8 AND 11, 40 MG/KG BW DMH ON D 14, 17, 20 AND 23, 0.05% BHBN I, Promoter: NONE USED) is on record as 5/20 (25%), 8/19 (42%), -68%, not calculated. Besides, the “tumour outcome (control, treated, inhibition, significance)” value is 1/20 (5%), 0/19 (0%), 100%, not calculated (Carcinogen: DIETHYLNITROSAMINE, 55-18-5, N-METHYL-NITROSOUREA, 684-93-5, N,N'-DIMETHYLHYDRAZINE, 540-73-8, N-BUTYL-N-(4-HYDROX, Carcinogen: DIETHYLNITROSAMINE, 55-18-5, N-METHYL-NITROSOUREA, 684-93-5, N,N'-DIMETHYLHYDRAZINE, 540-73-8, N-BUTYL-N-(4-HYDROX, 200 MG/KG BW IN CORN OIL 3/WK FOR 6 WK BEGINNING POST CARCINOGEN TREATMENT (STUDY DURATION: 28 WK), Route [Inhibitor]: GAVAGE, Species: RAT, Strain/Sex: F344/MALE, Target Tissue: Type of Lesion: KIDNEY: RENAL CELL CARCINOMA, Dose [Carcinogen]: 100 MG/KG BW DEN ONCE, 20 MG/KG BW MNU ONCE ON D 2, 5, 8 AND 11, 40 MG/KG BW DMH ON D 14, 17, 20 AND 23, 0.05% BHBN I, Dose [Carcinogen]: 100 MG/KG BW DEN ONCE, 20 MG/KG BW MNU ONCE ON D 2, 5, 8 AND 11, 40 MG/KG BW DMH ON D 14, 17, 20 AND 23, 0.05% BHBN I, Promoter: NONE USED); 96%, 90%, 6%, not significant (Carcinogen: N-NITROSOMETHYLBENZYLAMINE, 937-40-6, 10 MG/KG IN CORN OIL 1/WK FOR 5 WK BEGINNING 3 HR PRIOR TO CARCINOGEN TREATMENT (STUDY DURATION: 15 WK), Route [Inhibitor]: GAVAGE, Species: RAT, Strain/Sex: SPRAGUE-DAWLEY/MALE, Target Tissue: Type of Lesion: ESOPHAGUS: TUMOR, Dose [Carcinogen]: 3 MG/KG 1/WK FOR 5 WK, Promoter: NONE USED); 96%, 63%, 34%, p<0.05 (Carcinogen: N-NITROSOMETHYLBENZYLAMINE, 937-40-6, 100 MG/KG IN CORN OIL 1/WK FOR 5 WK BEGINNING 3 HR PRIOR TO CARCINOGEN TREATMENT (STUDY DURATION: 15 WK), Route [Inhibitor]: GAVAGE, Species: RAT, Strain/Sex: SPRAGUE-DAWLEY/MALE, Target Tissue: Type of Lesion: ESOPHAGUS: TUMOR, Dose [Carcinogen]: 3 MG/KG 1/WK FOR 5 WK, Promoter: NONE USED); 96%, 96%, 0%, not significant (Carcinogen: N-NITROSOMETHYLBENZYLAMINE, 937-40-6, 200 MG/KG IN CORN OIL 1/WK FOR 5 WK BEGINNING POST CARCINOGEN TREATMENT (STUDY DURATION: 15 WK), Route [Inhibitor]: GAVAGE, Species: RAT, Strain/Sex: SPRAGUE-DAWLEY/MALE, Target Tissue: Type of Lesion: ESOPHAGUS: TUMOR, Dose [Carcinogen]: 3 MG/KG 1/WK FOR 5 WK, Promoter: NONE USED); 70%, 57%, 19%, not significant (Carcinogen: VINYL CARBAMATE, 15805-73-9, 8 UMOL IN 0.1 MOLAR STERILIZED POTASSIUM BUFFER ONCE 10 MIN PRIOR TO CARCINOGEN DOSE (STUDY DURATION: 22 WK), Route [Inhibitor]: GAVAGE, Species: MOUSE, Strain/Sex: ICR/FEMALE, Target Tissue: Type of Lesion: SKIN: PAPILLOMA, Dose [Carcinogen]: 5.8 UMOL IN 0.2 ML ACETONE ONCE, Promoter: 12-O-TETRADECANOYLPHORBOL 13-ACETATE, 16561-29-8); 58%, 29%, 50%, not calculated (Carcinogen: VINYL CARBAMATE, 15805-73-9, 200 MG/KG BW ONCE AT 2 HR AND 1 D PRIOR TO CARCINOGEN DOSE (STUDY DURATION: 22 WK), Route [Inhibitor]: GAVAGE, Species: MOUSE, Strain/Sex: CD-1/FEMALE, Target Tissue: Type of Lesion: SKIN: PAPILLOMA, Dose [Carcinogen]: 11.5 UMOL IN 0.2 ML ACETONE ONCE, Promoter: 12-O-TETRADECANOYLPHORBOL-13-ACETATE, 16561-29-8). Moreover, the outcome (Carcinogen: N-NITROSOMETHYLBENZYLAMINE, 937-40-6, Dose [Inhibitor]: 200 MG/KG BW IN CORN OIL 1/WK FOR 5 WK BEGINNING 3 HR PRIOR TO EACH CARCINOGEN DOSE (STUDY DURATION: 15 WK), Route [Inhibitor]: GAVAGE, Species: RAT, Strain/Sex: SPRAGUE-DAWLEY/MALE, Target Tissue: Type of Lesion: ESOPHAGUS: TUMOR, Dose [Carcinogen]: 3.5 MG/KG BW 1/WK FOR 5 WK, Promoter: NONE USED) was 79%, 0, 100%, p<0.001.
